Data published in patent publication US20110082087A1, “COMPOUNDS FOR TREATING PAIN” (Edificio ICAT, priority 2008, published 2011).

Tests used:
rats [1] = assay: Comparison with morphine, behavioural nociception tests and behaviour observation; format: in vivo, rat; conditions: i.p.
Description: In vivo behavioural anti-nociception tests were carried out in rats (Wister, male). Unless otherwise stated, compounds were administered by intra-peritoneal (i.p.) injection. For most assays, the Tail Flick and the Hot Plate tests were used.
The analgesic potential of KTP-NH2 was also verified by comparison with well-known, widely-used analgesic molecules: ibuprofen and morphine.
From FIG. 12 it is possible to observe that the efficacy of 3 mg/100 g of KTP-NH2 is similar to that observed with 0.5 mg/100 g dose of morphine.

rats (Wister, male) [2] = assay: Hepatotoxicity markers in plasma; format: in vivo, rat
Description: (§1) The toxicological studies were carried out with rats (Wister, male) injected i.p. once a day with 3.23 mg/100 g body mass during seven days.
Liver is the major organ of toxicity. Blood samples were collected and the following hepatotoxicity markers were assayed in the plasma: • Alanine transaminase (ALT), • Aspartate transaminase (AST) • Alkaline phosphatase (ALP) • Total bilirubin (TBILI) • Gamma glutamyl transpeptidase (GGT)
Increased levels of the liver enzymes ALT, AST, ALP and GGT in the plasma would indicate lesions in liver. Increased RBL would be a sign of faulty bilirubin production/hemolysis and/or bilirubin metabolism (in liver).

[3] = Differential quenching, depth of location in the membrane; format: physicochemical; conditions: phenolic ring; differential quenching with 5-NS and 16-NS
Source text: Differential quenching experiments were used to estimate the depth of location of the phenolic ring of the peptides, based on a Brownian dynamics simulation (Fernandes M. X., Garcia de la Torre J., Castanho M. A. 2002. Joint determination by Brownian dynamics and fluorescence quenching of the in-depth location profile of biomolecules in membranes. Anal. Biochem. 307: 1-12.) This methodology allows to determine where the molecules are preferably inserted along the lipid bilayer. The peptides with the amide group show a greater depth of insertion, 4 Å—KTP-NH2 and 3 Å—Ibu-KTP-NH2, from the lipid/water interface. This is in agreement with KTP-NH2 having a higher affinity for lipids, as desired.

[4] = Plasma serum stability of analogues; format: in vitro ADME; conditions: Human Serum; test concentration 400 uM; 1-hour incubation; read-out: Mean Parent Remaining (%)
Description: These analogues were tested for plasma serum stability, in comparison with KTP-NH2.

[5] = Acrylamide quenching studies (aggregation in aqueous medium); format: physicochemical; conditions: acrylamide quenching of tyrosine fluorescence
Description: The aggregation of molecules in aqueous medium, as a result of poor solubility, for example, is a critical parameter in pharmacology. […] For this purpose, acrylamide quenching studies were performed (Lakowicz J. R 1999. Principles of Fluorescence spectroscopy, Second Edition ed., Kluwer Academic/Plenum Publishers, New York; Coutinho A and Prieto M. 1993. Ribonuclease T1 and alcohol dehydrogenase fluorescence quenching by acrylamide: A laboratory experiment for undergraduate students J. Chem. Education, 70: 425-428). Acrylamide is an aqueous quencher of tyrosine fluorescence. When fluorescent peptides aggregate, the phenolic groups tend to cluster and remain inaccessible to hydrophilic molecules. Conversely, when no aggregation occurs, all tyrosine residues are exposed to the solvent and, therefore, accessible to the contact and quenching by acrilamide. […] The fluorescence spectra were not concentration-dependent (not shown) and there was a linear dependence of fluorescence intensity on concentration (not shown).

rats [6] = assay: Formalin test (paw jerks); format: in vivo, rat; conditions: acute and tonic-chronic phases; i.p. 10 min before 5% formalin s.c.
Source text: The formalin test was introduced as a model of tonic pain in 1977 (Dubuisson D., Dennis S. G. 1977. The formalin test: a quantitative study of the analgesic effect of morphine, meperidine and brain stem stimulation in rats and cats. Pain; 4:74-161). In rats, formalin generates an initial phase of activity (phase 1, acute), a quiescent interphase, and a second phase of activity (phase 2, tonic/chronic), and this is seen with spontaneous behaviors, firing of afferent neurons, and activity in dorsal horn neurons. Both active phases involve ongoing peripheral afferent neural activity; inflammation contributes to phase 2 activity and the interphase results from active inhibition. Within the spinal cord, formalin increases c-fos expression in neurons and causes activation of microglia, and these may contribute more prominently to longer term changes.
We performed the formalin test due to its validity as a model to study central sensitization events at the spinal level after peripheral inflammatory states. The standard two types of nociception were analyzed; the short-lasting nociception caused by a direct effect on nociceptors followed by a long-lasting nociception due to inflammation. KTP-NH2 was administered i.p. 10 min previous to formalin injection. […] The paw jerks were videotaped and measured both in the acute and in the tonic-chronic phases. […]

[7] = Partition into lipid bilayer vesicles (fluorescence titration); format: physicochemical; conditions: mammal-mimetic lipid bilayer vesicle; numerical treatment of fluorescence titration
Source text: We performed biophysical studies using fluorescent methodologies in order to characterize the interaction of KTP-NH2 with liposomes representing human cell membranes (Santos N. C., Prieto M. and Castanho M. A. 2003. Quantifying molecular partition into model systems of biomembranes: an emphasis on optical spectroscopic methods. Biochim Biophys Acta 1612: 123-135.). A clear interaction of KTP-NH2 with the lipid bilayers was observed. […] When titrated with a mammal-mimetic lipid bilayer vesicle (circles), the fluorescence intensity of the phenolic moiety increases due to insertion in the apolar environment created by the lipids. The POPC system mimetizes the external layer of human cell membranes, whereas POPG lipidic mixture mimetizes the internal layer of human cell membranes.
In order to confirm that these plasma-stable KTP-NH2 derivatives maintained their lipophilicity, their potential interaction with human cell membranes was assessed. Again, we performed biophysical studies using fluorescent methodologies (Santos N. C., Prieto M. and Castanho M. A. 2003. Quantifying molecular partition into model systems of biomembranes: an emphasis on optical spectroscopic methods. Biochim Biophys Acta 1612: 123-135.).

rats (Wister, male) [8] = assay: Antioxidant capacity in plasma (ACW, ACL); format: in vivo, rat; conditions: i.p. once a day 3.23 mg/100 g for seven days
Description: as §1
Metabolization of KTP-NH2 in the organism might lead to an increase in its metabolite products and to the subsequent production of reactive oxygen species (ROS). As increased ROS levels are potentially harmful, KTP-NH2 potential to induce changes in antioxidant capacities in the plasma of animals was explored. Total antioxidant capacity of lipid-soluble (ACL) and water-soluble (ACW) constituents were determined.

N=C(N)NCCC[C@H](NC(=O)[C@@H](N)Cc1ccc(O)cc1)C(N)=O [KTP-NH2, L-Tyr-L-Arg-NH2]
analgesic efficacy compared with morphine (rats [1]; 3 mg/100 g KTP-NH2 vs 0.5 mg/100 g morphine): similar
alterations in behavior (secondary effects) (rats [1]; rats): no such secondary effects were observed
GGT in plasma (rats (Wister, male) [2]; i.p. once a day 3.23 mg/100 g for seven days): trace amounts, below the detection limit
hepatotoxicity markers AST, ALT, ALP, total bilirubin in plasma (rats (Wister, male) [2]; i.p. once a day 3.23 mg/100 g for seven days vs control): no toxic effects were detected
depth of insertion from the lipid/water interface [3]: 4 Å
remaining at 1 h, 400 uM [4]: 14%
aggregation / solubility in aqueous medium [5]: favourable solubility properties
number of paw-jerks (rats [6]): reduced significantly
local concentration in the model membrane of mammals relative to surrounding bulk aqueous phase [7]: approx. 2500 fold
basal antioxidant capacity in plasma (ACL, ACW) (rats (Wister, male) [8]): does not induce significant modifications
